Literature values as cited in patent publication US11577212B2, “Stimuli-responsive micro-reservoirs for release of encapsulants” (priority 2018, dated 2023).

SMILES	solubility in water
COCCOC [1,2-dimethoxy-ethane (glyme, DME), 1,2-dimethoxy-ethane]	Miscible
CN(C)P(N(C)C)N(C)C [Hexamethylphosphorous triamide (HMPT), Hexamethylphosphorous triamide]	Miscible
Clc1ccccc1 [chlorobenzene]	0.05 g/100 g
COCCOCCOC [diethylene glycol dimethyl ether]	Miscible
CCO [ethanol]	Miscible
CCCCC [pentane]	0.04 g/100 g

The next lines start with the values.

solubility in water	SMILES
0.0055 g/100 g	C1CCCCC1 [cyclohexane]
8.7 g/100 g	CCOC(C)=O [ethyl acetate]
Miscible	OCC(O)CO [glycerin]
0.0014 g/100 g	CCCCCC [hexane]
